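Assay format: 96-well plates, 48-hour exposure. TGI marks complete inhibition of growth.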 Where a SMILES comes first, the peptide text is derived from it. The star is where a group is joined. Fmoc = O=C(OCC1c2ccccc2-c2ccccc21)*; Boc = CC(C)(C)OC(=O)*
Assays:
Test in all cases: growth of human tumour cells (NCI), 48 h
NCI-H460 lung = system: NCI-H460 lung
KM12 colon = system: KM12 colon
COLO 205 colon = system: COLO 205 colon
SF-539 CNS = system: SF-539 CNS
OVCAR-3 ovarian = system: OVCAR-3 ovarian
NCI-H226 lung = system: NCI-H226 lung
UACC-62 melanoma = system: UACC-62 melanoma
M14 melanoma = system: M14 melanoma
U251 CNS = system: U251 CNS
MCF7 breast = system: MCF7 breast

| SMILES | TGI (NCI-H460 lung) | TGI (KM12 colon) | TGI (COLO 205 colon) | TGI (SF-539 CNS) | TGI (OVCAR-3 ovarian) | TGI (NCI-H226 lung) | TGI (UACC-62 melanoma) | TGI (M14 melanoma) | TGI (U251 CNS) | TGI (MCF7 breast) |
| --- | --- | --- | --- | --- | --- | --- | --- | --- | --- | --- |
| CC(C)C(=O)CP(=O)(O)O | > 100 µM | > 100 µM | > 100 µM | > 100 µM | > 100 µM | > 100 µM | > 100 µM | > 100 µM | > 100 µM | > 100 µM |
| O=C1Cc2c([nH]c3cc(Br)ccc23)-c2ccccc2N1 | 48.5 µM | > 100 µM | 93.8 µM | 37.3 µM | 83.4 µM | 34.7 µM | 49.2 µM | 37.5 µM | 31.8 µM | > 100 µM |
| Cc1c(C=C(C#N)C#N)c(=O)n(C)c(=O)n1C | > 100 µM | > 100 µM | > 100 µM | > 100 µM | > 100 µM | > 100 µM | > 100 µM | > 100 µM | > 100 µM | > 100 µM |
| O=C(N1CCN(c2ccccc2)CC1)N(C(=O)C1(c2ccc(Cl)cc2)CCCC1)S(=O)(=O)c1ccccc1 | > 100 µM | > 100 µM | 60.3 µM | 49.7 µM | 82.6 µM | 99.3 µM | 51.7 µM | 47.3 µM | 62.4 µM | 74.9 µM |
| CCOC(=O)C(C(=O)OCC)C(NC(=O)Nc1cc(C(F)(F)F)ccc1OC)(C(F)(F)F)C(F)(F)F | > 100 µM | 66.1 µM | 32.3 µM | 36.2 µM | 54.3 µM | 72.4 µM | 88.8 µM | 45 µM | 59.1 µM | > 100 µM |
| COC(=O)c1c(OC(C)=O)ccc2c1c1cc3ccccc3c(OC(C)=O)c1n2C | > 100 µM | > 100 µM | 69.8 µM | 91.1 µM | 62 µM | > 100 µM | > 100 µM | > 100 µM | > 100 µM | > 100 µM |
| CCCCn1c2c(n(CCCC)c1=[Se])-c1c(n(CCCC)c(=[Se])n1CCCC)S[Se][Se]S2 | 29 µM | > 59.3 µM | 39.4 µM | 42.8 µM | 25 µM | 39 µM | 40.7 µM | > 59.9 µM | 32.2 µM | > 69 µM |
| O=c1ccc2nc3ccc(O)cc3oc-2c1 | > 100 µM | > 62.7 µM | 24.9 µM | > 59.8 µM | > 85.7 µM | > 100 µM | 5.55 µM | 19.5 µM | > 100 µM | > 52.7 µM |
| CCOC(=O)c1c[nH]c2cc3c(cc2c1=O)CCS3 | > 100 µM | > 100 µM | > 100 µM | > 100 µM | > 100 µM | > 100 µM | > 100 µM | > 100 µM | > 100 µM | > 100 µM |
| Fc1ccc(C(OCCN2CCC3CCC(C2)N3C/C=C/c2cccnc2)c2ccc(F)cc2)cc1 (stereo not given) | 30.6 µM | 26.3 µM | 2.68 µM | 25.2 µM | 29.5 µM | 30.3 µM | 25 µM | 7.09 µM | 24.4 µM | 25.5 µM |
| NC1=CN(Cc2ccccc2)C2=N/C(=C\c3ccco3)C(=O)N12 | > 100 µM | > 100 µM | > 100 µM | > 100 µM | > 100 µM | > 100 µM | > 100 µM | > 100 µM | > 100 µM | > 100 µM |
| Cc1ccc(C)c(C(=N)c2ccccc2Cc2ccccc2)c1 | 33.2 µM | 56.5 µM | 66.9 µM | 33.8 µM | 27.2 µM | 33.9 µM | 33.4 µM | > 100 µM | 30.4 µM | 32.4 µM |
| Nc1c(O)c(C(=O)O)cc2ccccc12 | > 100 µM | > 100 µM | 64.1 µM | > 100 µM | 94.5 µM | 99.8 µM | 31.6 µM | 35.2 µM | > 100 µM | 24.2 µM |
| Cc1cc(C)nc(NS(=O)(=O)c2ccc(NC(=O)c3ccc4nc5ccccc5c(Nc5ccc(S(=O)(=O)Nc6nc(C)cc(C)n6)cc5)c4c3)cc2)n1 | > 100 µM | > 100 µM | > 100 µM | > 100 µM | > 100 µM | > 100 µM | > 100 µM | > 100 µM | > 100 µM | 84.5 µM |
| COc1ccccc1NC1=NCC(C)S1 (stereo not given) | > 100 µM | > 100 µM | > 100 µM | > 100 µM | > 100 µM | > 100 µM | > 100 µM | > 100 µM | > 100 µM | > 100 µM |
| CC(=O)NC1=CC(=O)C=C(Cl)C1=O | > 100 µM | > 100 µM | > 100 µM | > 100 µM | > 100 µM | > 100 µM | > 100 µM | > 100 µM | > 100 µM | 82.4 µM |
| CC(=O)Nc1ccc2c3c(cc(O)c2c1)N(C(=O)CCCCCC(=O)Nc1ccc2c4c(cc(O)c2c1)N(C(=O)OC(C)(C)C)CC4CCl)CC3CCl (stereo not given) | > 21.2 µM | 13.6 µM | 9.88 µM | 13.1 µM | 4.54 µM | 9.56 µM | 3.87 µM | 20.5 µM | 6.75 µM | > 35.5 µM |
| C[C@]12CC[C@H]3[C@@H](CCC4=CC(=O)CC[C@@]43C)[C@@H]1CC[C@@H]2OC(=O)c1cccc2c(=O)c3ccccc3[nH]c12 | > 100 µM | > 100 µM | > 100 µM | > 100 µM | > 100 µM | > 100 µM | > 100 µM | > 100 µM | > 100 µM | > 100 µM |

| SMILES | TGI (NCI-H460 lung) | TGI (KM12 colon) | TGI (COLO 205 colon) | TGI (SF-539 CNS) | TGI (OVCAR-3 ovarian) | TGI (NCI-H226 lung) | TGI (UACC-62 melanoma) | TGI (M14 melanoma) | TGI (U251 CNS) | TGI (MCF7 breast) |
| --- | --- | --- | --- | --- | --- | --- | --- | --- | --- | --- |
| CC(C)=C=CC(C)(C)NS(=O)(=O)NC(C)(C)C=C=C(C)C | > 100 µM | > 100 µM | > 100 µM | > 100 µM | > 100 µM | > 100 µM | > 100 µM | > 100 µM | > 100 µM | > 100 µM |
| Cc1ccc2nnc(NS(=O)(=O)c3cc(C)c(Cl)cc3S)n2n1 | > 100 µM | > 100 µM | > 100 µM | > 100 µM | > 100 µM | > 100 µM | > 100 µM | > 100 µM | > 100 µM | > 100 µM |
| O=c1c2cc([N+](=O)[O-])cnc2sn1-c1ccc(Br)cc1 | > 100 µM | > 100 µM | > 100 µM | > 100 µM | > 100 µM | > 100 µM | > 100 µM | > 100 µM | > 100 µM | > 100 µM |
| CCOC(=O)/C=C1\C[C@H](NC(=O)OCc2ccccc2)C(=O)N1CC(=O)OCC | > 100 µM | > 100 µM | > 100 µM | > 100 µM | > 100 µM | > 100 µM | > 100 µM | > 100 µM | > 100 µM | > 100 µM |
| Nc1ccc2c(c1)S(=O)(=O)c1cc(N)ccc1-2 | > 100 µM | > 100 µM | > 100 µM | > 100 µM | > 100 µM | > 100 µM | > 100 µM | > 100 µM | > 100 µM | > 100 µM |
| N#CCCN(CCC#N)c1ccc(/C=C2\N=C(c3ccccc3)N(c3ccccc3)C2=O)cc1 | > 100 µM | > 100 µM | > 100 µM | > 100 µM | > 100 µM | > 100 µM | > 100 µM | > 100 µM | > 100 µM | > 100 µM |
| Cn1c2c(c3c(=O)[nH]ncc31)CCCc1ccccc1-2 | 67.7 µM | > 100 µM | 34.5 µM | > 100 µM | 86.4 µM | 86 µM | > 100 µM | > 100 µM | 92.1 µM | 53 µM |
| N#C/C=C\c1ccc(-c2cc(C(F)(F)F)cc(C(F)(F)F)c2)o1 | > 100 µM | > 100 µM | > 100 µM | 26.6 µM | > 100 µM | > 100 µM | 62.8 µM | > 100 µM | 27.4 µM | > 100 µM |
| NC(=O)N=Nc1c2ccccc2n2[nH]ccc12 | > 100 µM | > 100 µM | > 100 µM | > 100 µM | > 100 µM | > 100 µM | > 100 µM | > 100 µM | > 100 µM | 66.7 µM |
| CC(C)(C)OC(=O)NCCCCC(NC(=O)C(Cc1c[nH]c2ccccc12)NC(=O)OCC1c2ccccc2-c2ccccc21)C(=O)O (stereo not given) (Fmoc-Trp-Lys(Boc)-OH; configuration not given here) | > 100 µM | > 100 µM | > 100 µM | > 100 µM | 40.4 µM | > 100 µM | 42.4 µM | > 100 µM | 31.1 µM | > 100 µM |
| COc1cc(C2SC(N)=Nc3c2c(C)nn3C(=O)c2ccc(Cl)cc2)ccc1O (stereo not given) | > 10 µM | > 10 µM | > 10 µM | > 10 µM | > 10 µM | > 10 µM | > 10 µM | > 10 µM | > 10 µM | > 10 µM |
| COc1ccc(/C=C2\CC3C4CC=C5C[C@@H](O)CC[C@]5(C)C4CC[C@]3(C)C2=O)cc1OC (stereo not given in full) | > 100 µM | > 100 µM | 47 µM | > 100 µM | 51.9 µM | > 100 µM | > 100 µM | > 100 µM | > 100 µM | > 100 µM |
| CCOC(=O)c1c(CN2CCOCC2)n(Cc2ccccc2)c2c1cc(O)c1nc(C)c(C)nc12 | > 100 µM | > 100 µM | > 100 µM | 87 µM | > 100 µM | > 100 µM | > 100 µM | > 100 µM | 74.3 µM | 34.5 µM |
| N=c1oc2ccc(Cl)cc2cc1C(=O)NC1CCCCC1 | > 100 µM | > 100 µM | > 100 µM | > 100 µM | > 100 µM | > 100 µM | > 100 µM | > 100 µM | > 100 µM | > 100 µM |
| O=Cc1ccc2[nH]c(=O)oc2c1 | > 100 µM | > 100 µM | > 100 µM | > 100 µM | > 100 µM | > 100 µM | > 100 µM | > 100 µM | > 100 µM | > 100 µM |
| CC1(C)N=C(N)N=C(N)N1CCCCc1ccccc1 | > 100 µM | > 100 µM | > 51.6 µM | 32.4 µM | > 36.8 µM | > 83 µM | > 100 µM | > 100 µM | > 100 µM | > 100 µM |
| COc1cc2c3c4c1OCc1c5c(cc(c1-4)CC3[N+](C)(C)CC2)OCO5 (stereo not given) | > 100 µM | > 100 µM | > 100 µM | > 96.6 µM | > 100 µM | > 100 µM | > 100 µM | > 100 µM | > 64.1 µM | > 100 µM |
| CC(C)(C)OC(=O)CC(NC(=O)OC(C)(C)C)C(=O)Oc1ccc([N+](=O)[O-])cc1 (stereo not given) | > 100 µM | > 100 µM | > 100 µM | > 100 µM | > 100 µM | > 100 µM | 65.9 µM | > 100 µM | > 100 µM | > 100 µM |
